Reference: US20250082714A1, “METHODS AND COMPOSITIONS FOR THE TREATMENT OR PREVENTION OF MUSCULAR DYSTROPHY” (Stealth BioTherapeutics Inc., priority 2021, published 2025)
Values joined by “and” are separate entries in the source; they are usually repeats but may differ in a detail not shown here. Equal values may be shown once. Where a SMILES comes first, the peptide text is derived from it. [ ]: non-standard residue; d: D form. Dmt = Cc1cc(O)cc(C)c1C[C@H](N)C(=O)O

Assays:
[1] = tested on: dystrophin; assay: Western blot of dystrophin in tibialis anterior (TA) muscle of treated mdx mice; assay type: in vivo, mouse (C57BL/10ScSn-Dmdmdx/J; details: 7 weeks; for % Dystrophin Average: average of treatment group (n=14-15 mdx mice); for % Dystrophin: individual mdx mouse
Protocol: (§1) Treatment groups. Four-week-old C57BL/10ScSnJ (stock #000476) and C57BL/10ScSn-Dmdmdx/J mice (stock #001801) were sourced from Jackson Laboratory in Bar Harbor, USA and sorted into a total of five treatment groups (Table 1). The C57BL/10ScSnJ (BL10) mice received vehicle #1 (1×PBS) and vehicle #2 (0.9% Saline). Of the C57BL/10ScSn-Dmdmdx/J (mdx) groups, one received vehicle #1(1×PBS) and vehicle #2 (0.9% Saline), the second group was treated with PMO (125 mg/kg) and vehicle #2 (0.9% Saline), the third group was treated with vehicle #1 (1×PSB) and MTP-131 (5 mg/kg), and the final group was treated with both PMO (125 mg/kg) and MTP-131 (5 mg/kg). PMO compound and the respective vehicle (1×PBS) was administered weekly via retro-orbital injection. MTP-131 compound and the vehicle (0.9% saline) were administered daily via intraperitoneal (IP) injection. Treatment was for a total of 7 weeks.
Experimental endpoint measures. Upon arrival from Jackson laboratory to the Life Science Research Institute (LSRI) animal facility in Halifax, Canada, 4 week-old BL10 and mdx mice were subjected to a one-week acclimation period to the new facility, after which they were weighed, ear-tagged, and randomized. Once randomized, the animals were treated daily for 7 weeks. During treatment, mice were visually assessed for health (altered food and water consumption, abnormal breathing, circling, eye/hair matting and any other features of abnormal appearance). All treatment groups followed the experimental design outlined in Table 2. In vitro force measurements and takedowns were performed throughout weeks 6-7. Takedowns were staggered to accommodate the in vitro force schedule. Scheduling was representative of the treatment groups.
Treatment preparation—PMO. The phosphorodiamidate morpholino oligomer (PMO) was sourced from Gene Tools, LLC. The PMO used was mExon 23(+07-18) (5′-[…]-3′) (SEQ ID NO: 1) against the boundary sequences of exon and intron 23 of the mouse dystrophin gene. The PMO was prepared fresh weekly by diluting the compound in 1×PBS to the stock concentration of 100 mg/ml. Any remaining compound was stored at 4° C.
Treatment preparation—MTP-131. MTP-131 dosing formulation was prepared weekly and filtered through a […] polyether sulfone (PES) filter. Because MTP-131 is extremely hygroscopic it was conditioned before use and weighed immediately after. If possible, MTP-131 was weighed in a low moisture environment (<20% RH). Prior to use, MTP-131 was removed from the refrigerator. The un-opened bottle was placed in a low moisture environment (<20% RH) and allowed to equilibrate at room temperature for at least 2 hours. Quickly, an aliquot was weighed for use without returning any un-used standard to the bottle and the bottle was immediately tightly capped. Immediately after use, the inside of the bag was wiped with a paper towel to remove any moisture, and the reference bottle (tightly capped) was placed back into the aluminum bag, re-sealed and placed back in 2-8° C. storage.
Treatment administration—PMO. PMO compound was delivered weekly via retro-orbital intravenous injection using a 28-gauge needle. Mice were gently removed from their cage and anesthetized using 5% isoflurane and maintained with 1.5-2% isoflurane. Once the pedal reflex was absent, the mouse was positioned on its side, and loose skin behind the shoulders and ears pinned back using the thumb and middle finger of the non-dominant hand. The skin surrounding the eye was drawn back using the index finger, allowing the eye to protrude slightly. The needle was inserted carefully at a 30° angle with the bevel away from the eye, lateral to the medial canthus, through the conjunctival membrane. Once in the retro-orbital sinus, the compound was slowly injected (10 μl/5-10 seconds). The needle was then carefully removed to prevent injury and leakage. If more than 20 μl of leakage occurred, the injectable was aspirated back into the syringe and injected again. […]

[2] = tested on: C57BL/10ScSn-Dmdmdx/J (mdx) mice; assay: H&E inflammation analysis of TA muscle sections; assay type: in vivo, mouse; details: as compared to the mdx vehicle group; PMO 125 mg/kg, MTP-131 5 mg/kg
Protocol: as §1
Histological analysis—H&E—Inflammation Analysis. TA muscle (n=8/group) was sectioned at 10 μm (2 sections/slide) and stored at −80° C. until the staining was performed. Slides were stained with Hematoxylin & Eosin (H&E) and were analyzed for percent inflammation. An inflammatory focus (pl. foci) was measured by counting 10 or more inflammatory cells in a single cluster. These foci areas were measured in mm2 and then compared to the tissue's total area, from which a percentage was calculated. […]

[3] = PMO 125 mg/kg weekly, MTP-131 5 mg/kg daily
[4] = Run 1, Gel #5, PMO 125 mg/kg weekly retro-orbital, MTP-131 5 mg/kg daily IP
[5] = Run 1, Gel #6, PMO 125 mg/kg weekly, MTP-131 5 mg/kg daily
[6] = Run 2, Gel #7, PMO 125 mg/kg weekly, MTP-131 5 mg/kg daily
[7] = Run 2, Gel #8, PMO 125 mg/kg weekly, MTP-131 5 mg/kg daily
[8] = Run 3, Gel #9, PMO 125 mg/kg weekly, MTP-131 5 mg/kg daily
[9] = Run 3, Gel #10, PMO 125 mg/kg weekly, MTP-131 5 mg/kg daily

| Molecule | % Dystrophin Average [1, 3] [%] | % Dystrophin [1, 4] | % Dystrophin [1, 5] | % Dystrophin [1, 6] | % Dystrophin [1, 7] | % Dystrophin [1, 8] | % Dystrophin [1, 9] | % Dystrophin ([1]; summary by treatment group, PMO 125 mg/kg weekly, MTP-131 5 mg/kg daily) | inflammation in the tibialis anterior muscles [2] |
| --- | --- | --- | --- | --- | --- | --- | --- | --- | --- |
| Cc1cc(O)cc(C)c1C[C@H](NC(=O)[C@H](N)CCCNC(=N)N)C(=O)N[C@@H](CCCCN)C(=O)N[C@@H](Cc1ccccc1)C(N)=O [MTP-131, H-D-Arg-2′6′-Dmt-Lys-Phe-NH2] (H-[dR][Dmt]KF-NH2) | 0.70 | 0.3% and 0.4% and 0.6% | 1.0% and 1.2% | 0.8% | 0.8% | 1.0% | 0% | 1.00% (3×) and 1.10% and 0.00% (2×) and 0.80% (4×) and 0.30% and 0.40% and 0.60% and 1.20% | reduced |
| PMO: phosphorodiamidate morpholino oligomer mExon 23(+07-18), 5′-GGCCAAACCTCGGCTTACCTGAAAT-3′ (SEQ ID NO: 1), against exon/intron 23 boundary of mouse dystrophin gene; Gene Tools (all phosphorodiamidate morpholino (PMO)) [reference compound] | 3.66 | 6.0% and 4.2% | 4.7% and 2.7% | 1.2% and 1.7% and 7.4% | 3.2% and 1.4% | 1.4% and 3.9% | 3.1% and 2.9% and 7.2% | – | reduced |
